Each structure is given as a SMILES string.

The source of these data is BindingDB's records for doi:10.1021/jm00126a022 (University of South Alabama, 1989).

This assay concerns the target GAR formyltransferase (Lactobacillus casei). Nature of the assay: Inhibition of the GAR formyl transferase in lactobacillus casei.

`CC(Cc1ccc(C(=O)NC(CCC(=O)O)C(=O)O)cc1)Cc1cnc2nc(N)[nH]c(=O)c2n1` (stereo unspecified) gave an IC50 above 20 µM.

The IC50 is the point on the concentration scale where inhibition reaches its midpoint. A low value points to higher potency.
